{"source": "patent US20240130675A1", "about": "“Methods for Treating Autism Spectrum Disorder” (The General Hospital Corporation, priority 2021, published 2024)", "key": {"ASD behaviors": {"test_system": "ASD behaviors", "details": "12 week, mean dose 5 mg/day; cited from earlier work"}, "youth with ASD": {"test_system": "youth with ASD", "assay": "Treatment response based on baseline PgACC glutamate activity (high vs normal; treatment group-by-glutamate-by-visit interaction)", "format": "in vivo, human", "details": "for Mean # of AEs / # of Participants with AEs / Treatment-Limiting AEs: TOLERABILITY", "procedure": "The primary outcome was analyzed using Pearson's chi-square test at the a priori defined significance level of 0.05. Secondary measures of efficacy were analyzed using mixed-effects regression models with robust standard errors to account for the repeated measures on each subject. The primary and secondary measures were compared between memantine versus placebo as well as between those with high versus normal baseline glutamate activity levels. Participants were categorized as having high versus normal glutamate activity levels at baseline using z-scores. The population mean and SD for z-score calculations were derived from healthy control glutamate activity levels (baseline and endpoint). Glutamate activity levels with z-scores≥1 were categorized as high glutamate activity levels, those with z-scores<1 and >−1 were categorized as normal glutamate activity levels and those with z-scores≤−1 were categorized as low glutamate activity levels. Changes in PgACC glutamate activity levels within groups were tested using paired t-tests and changes between groups were tested using two-sample t-tests. We also performed ROC curve analyses to determine the predictive utility of baseline PgACC glutamate activity levels in identifying treatment responders within the memantine and placebo groups. All analyses apart from the analysis of the primary outcome were considered exploratory. Analyses were performed using a modified intent-to-treat analysis set which included all randomized patients who were regarded exposed to study medication (completed at least two weeks of treatment) and had at least one follow-up assessment.\nThe mixed-effects regression models used to analyze the secondary measures of efficacy predicted the outcome measure from treatment group (memantine versus placebo), study visit (continuous), and the treatment group-by-study visit interaction, which is our test of efficacy. To examine the effect of baseline PgACC glutamate activity level on the response to treatment, we predicted outcomes measures from treatment group, study visit (continuous), PgACC glutamate activity level (continuous), treatment group-by-study visit interaction, glutamate activity level-by-study visit interaction, treatment group-by-glutamate activity level interaction, and treatment group-by-glutamate activity level-by-study visit interaction. All mixed-effects regression models had random intercepts by subject ID, used robust standard errors to account for the repeated measures on each subject, and used an independent covariance structure for the random effects. […] All missing data were assumed to be missing at random.\nEffect sizes are presented as standardized mean differences (SMD) for continuous outcomes and odds ratios (OR) for dichotomous outcomes. The SMDs for the difference of the changes in scores over time between memantine and placebo and between high glutamate and normal glutamate were calculated as Cohen's d using the following calculations: the difference in the change scores between the two groups divided by the pooled standard deviation. The SMDs for changes in scores within groups were calculated as Cohen's d using the following calculation: difference in score from baseline to endpoint divided by the pooled standard deviation. For comparisons of memantine versus placebo and high glutamate versus normal glutamate, positive SMDs and ORs>1 indicate better improvement in the memantine group and high glutamate group, respectively. For comparisons of ASD versus healthy controls, positive SMDs indicate lower glutamate activity levels in the ASD group. As defined by Cohen (Statistical Power Analysis for the Behavioral Sciences. 2nd ed. Hillsdale, NJ: Erlbaum. 1988), a SMD=0.2 is interpreted as a small effect size, SMD=0.5 as medium, and SMD=0.8 as large. We considered ORs>2 to be clinically meaningful."}, "[1]": {"details": "HIGH glutamate activity levels, MEM N = 10"}, "[2]": {"details": "NORMAL glutamate activity levels, MEM N = 5"}, "[3]": {"details": "NORMAL glutamate activity levels, MEM N = 8"}}}
{"smiles": "CC12CC3CC(C)(C1)CC(N)(C3)C2", "note": "[MEM, memantine]", "values": [{"measurement": "ASD behaviors relative to placebo response", "setting": "ASD behaviors", "result": "no improvement in ASD behaviors"}, {"measurement": "ABC-Social Withdrawal MD", "setting": "youth with ASD; [1]", "result": "−8.5 ± 7.6"}, {"measurement": "ADHD-RS MD", "setting": "youth with ASD; [1]", "result": "−9.9 ± 11.7"}, {"measurement": "CASI-ANX MD", "setting": "youth with ASD; [1]", "result": "−10.3 ± 5.1"}, {"measurement": "CDRS-R MD", "setting": "youth with ASD; [1]", "result": "−9.8 ± 11.2"}, {"measurement": "CGI-1≤2", "setting": "youth with ASD; [1]", "result": "9 (90) N (%)"}, {"measurement": "CY-BOCS-PDD MD", "setting": "youth with ASD; [1]", "result": "−0.5 ± 1.6"}, {"measurement": "GAF MD", "setting": "youth with ASD; [1]", "result": "9.1 ± 5.4"}, {"measurement": "SRS-Autistic Mannerisms MD", "setting": "youth with ASD; [1]", "result": "−10.3 ± 5.3"}, {"measurement": "SRS-SCI MD", "setting": "youth with ASD; [1]", "result": "−39.8 ± 21.1"}, {"measurement": "SRS-Social Awareness MD", "setting": "youth with ASD; [1]", "result": "−5.0 ± 4.2"}, {"measurement": "SRS-Social Cognition MD", "setting": "youth with ASD; [1]", "result": "−8.1 ± 5.8"}, {"measurement": "SRS-Social Communication MD", "setting": "youth with ASD; [1]", "result": "−17.9 ± 7.7"}, {"measurement": "SRS-Social Motivation MD", "setting": "youth with ASD; [1]", "result": "−8.8 ± 5.3"}, {"measurement": "SRS-Total MD", "setting": "youth with ASD; [1]", "result": "−50.1 ± 25.7"}, {"measurement": "≥25% ↓↓SRS", "setting": "youth with ASD; [1]", "result": 9, "unit": "N"}, {"measurement": "≥25% ↓↓SRS + CGI-I ≤ 2", "setting": "youth with ASD; [1]", "result": "8 (80) N (%)"}, {"measurement": "ABC-Social Withdrawal MD", "setting": "youth with ASD; [2]", "result": "−3.6 ± 5.6"}, {"measurement": "ADHD-RS MD", "setting": "youth with ASD; [2]", "result": "−8.2 ± 7.4"}, {"measurement": "CASI-ANX MD", "setting": "youth with ASD; [2]", "result": "−2.4 ± 5.2"}, {"measurement": "CDRS-R MD", "setting": "youth with ASD; [2]", "result": "−8.0 ± 11.8"}, {"measurement": "CGI-≤2", "setting": "youth with ASD; [2]", "result": "3 (60) N (%)"}, {"measurement": "CY-BOCS-PDD MD", "setting": "youth with ASD; [2]", "result": "−2.0 ± 2.8"}, {"measurement": "GAF MD", "setting": "youth with ASD; [2]", "result": "4.6 ± 4.3"}, {"measurement": "SRS-Autistic Mannerisms MD", "setting": "youth with ASD; [2]", "result": "−1.8 ± 5.1"}, {"measurement": "SRS-SCI MD", "setting": "youth with ASD; [2]", "result": "−9.2 ± 5.3"}, {"measurement": "SRS-Social Awareness MD", "setting": "youth with ASD; [2]", "result": "−0.8 ± 1.8"}, {"measurement": "SRS-Social Cognition MD", "setting": "youth with ASD; [2]", "result": "−2.0 ± 2.6"}, {"measurement": "SRS-Social Communication MD", "setting": "youth with ASD; [2]", "result": "−2.8 ± 2.7"}, {"measurement": "SRS-Social Motivation MD", "setting": "youth with ASD; [2]", "result": "−3.0 ± 4.0"}, {"measurement": "SRS-Total MD", "setting": "youth with ASD; [2]", "result": "−10.6 ± 10.6"}, {"measurement": "≥25% WISRS±CGI-1≤2", "setting": "youth with ASD; [2]", "result": "0 (0) N (%)"}, {"measurement": "≥25% WLSRS", "setting": "youth with ASD; [2]", "result": "0 (0) N (%)"}, {"measurement": "Mean # of AEs", "setting": "youth with ASD; HIGH glutamate activity levels, MEM N = 7", "result": "2.4 ± 1.3"}, {"measurement": "# of Participants with AEs", "setting": "youth with ASD; [1]", "result": "7 (70) N (%)"}, {"measurement": "Treatment-Limiting AEs", "setting": "youth with ASD; [1]", "result": "0 (0) N (%)"}, {"measurement": "Mean # of AEs", "setting": "youth with ASD; NORMAL glutamate activity levels, MEM N = 6", "result": "2.8 ± 1.0"}, {"measurement": "# of Participants with AEs", "setting": "youth with ASD; [3]", "result": "4 (50) N (%)"}, {"measurement": "Treatment-Limiting AEs", "setting": "youth with ASD; [3]", "result": "2 (25) N (%)"}, {"measurement": "Association of higher baseline PgACC glutamate activity levels with change scores (SRS Total, SRS-SCI, ABC-Social Withdrawal)", "setting": "youth with ASD; memantine group", "result": "greater change scores"}]}
